Measurements from paper PMC10791743, “Selective CK1α degraders exert antiproliferative activity against a broad range of human cancer cell lines” (Nature Communications, 2024).
Values joined by “and” are separate entries in the source; they are usually repeats but may differ in a detail not shown here. Equal entries are not always repeated. “Also recorded” adds a separate entry of the source. Where two headings read alike, the source gives them in different places.

Experiments:
[1] = test system: MOLM-13 cells overexpressing FLAG-tagged CK1α G40N mutant; assay: CK1α mutant rescue, CTG viability, FLAG-CK1α G40N MOLM-13; type: cell-based, human
Description: To evaluate the contribution of the CK1α degradation in SJ3149-mediated cytotoxicity, we utilized the degradation-resistant mutant CK1α G40N[41]. MOLM-13 cells were transduced with lentivirus to overexpress FLAG-tagged wild type CK1α or the G40N mutant, which removes the essential glycine in the CK1α degron G-loop.
The media was changed after cells rested in the 37 °C incubator overnight. […] As described above in the Molecular Glue Library Screening section, transduced MOLM-13 cells were seeded in 384-well plates at 1250 cells per well and allowed to rest overnight. 30 nl of CK1α degraders of interest were deposited on the cells using an Echo 650 acoustic liquid handler […]. […] This was done twice for a total of six technical replicates.

[2] = Metabolic stability in cryopreserved hepatocytes, human; type: in vitro ADME; conditions: human, cryopreserved hepatocytes; read-out: Hepatocyte stability t1/2
Description: page 34: UHPLC-MS/MS System: Chromatographic separation was performed on an Acquity UPLC BEH […] with 6500+ Qtrap system. […] software suite. The UPLC column was maintained at 55 °C. Mobile phase A was 0.1% formic acid in MilliQ H2O and Mobile phase B was 0.1% formic acid in acetonitrile. The flow rate was 0.9 […] The mass spectrometer was operated in positive-ion mode with electrospray ionization. MRM transition m/z […] plasma stability and plasma protein binding. The following MS parameters were employed for analyte measurements: ion spray voltage 5 kV, temperature 550 °C, gas 1 and gas 2 were 60, entrance potential (EP): 10 V, declustering potential (DP): 50 V, collision energy (CE): 27 V, and collision cell exit potential (CXP): 16 V. Metabolic Stability in mouse and human cryopreserved hepatocytes. 10 mM test compounds were provided by Compound Sample Group. Diluted 10 mM test compounds and 30 mM positive control compounds (7-ethoxycoumarin) to 1 mM and 3 mM with DMSO in 96-well plates. Diluted 1 mM test compounds and 3 mM positive control compounds to 100 μM and 300 μM dosing solutions with ACN. Cryopreserved cells were thawed, isolated and suspended in Incubation Medium, then diluted with pre-warmed Incubation Medium to 0.5 × 10^6cells/mL. Added 198 μL of pre-warmed cell suspensions in 96 -well plates. Transferred 125 μL of stop solution (acetonitrile containing 200 ng/mL tolbutamide and 200 ng/mL labetalol as internal standards) in a set of pre- labeled 96-well plates. Spike d 2 μL dosing solution to each well of 96 -well plates in duplicates. For T0 Samples, mix ed to achieve a homogenous suspension for about 1 min, then immediately transferred 25 μL of each sample into well containing 125 μL of ice -cold stop solution followed by mixing. Incubated all plates at 37°C in a 95% humidified incubator at 5% CO 2 to start the reactions page 35: with constant shaking at about 600 rpm. At 15, 30, 60 and 90 min, mixed samples and then transferred 25 μL of each sample at each time point to well containing 125 μL of ice -cold stop solution followed by mixing. Medium Control (MC) sample plates (labeled as T0-MC and T90- MC) were prepared at T0 and T90 by adding the same components to each well except cell suspensions. At each corresponding time point, stopped the reactions by removing the plates from incubator and mixing with 125 μL of ice-cold stop solution. Vortexed the plates immediately on a plate shaker at 500 rpm for 10 minutes. Then, centrifuge d all sample plates at 3220 x g for 20 min at 4°C. After centrifugation, 80 μL/well of supernatant in the sample plates were transferred to another set of pre-labeled 96-well plates which containing 240 μL of ultra pure water according to the plate map. Analytical plates were sealed and stored at 4°C until LC-MS/MS analysis. Thawing Medium: Williams' Medium E containing 5% fetal bovine serum and 30% Perc oll solution and other supplements. Incubation Medium: Williams' Medium E (no phenol red) containing 2 mM L-Glutamine and 25 mM HEPES. Stop Solution: Acetonitrile containing 200 ng/mL tolbutamide and labetalol as internal standards. Dilution Solution: Ultra-pure water. The remaining percents of test articles after incubation were calculated by the follow equations: Equation ( 6): Use equation of first order kinetics [NT] […] The data was […] concatenated with a reversed decoy database for evaluating False Discovery Rate (FDR). […]

[3] = Pharmacokinetics in female CD1 mice; type: in vivo, mouse; conditions: mouse; for half-life: CD1, mouse, plasma
Description: Three mice were housed in each cage. […] Temperature and humidity were recorded by an auto-controlled data logger system. All the animals were provided a laboratory rodent diet (Altromin, Germany). Reverse osmosis water treated with ultraviolet light was provided ad libitum. Total 27 mice (n = 9/group) were divided into three groups as Group 1, Group 2, and Group 3 with a sparse sampling design (3 mice/time points). […] The formulation vehicle for IV was 5% v/v NMP, 5% v/v Solutol HS-15 and 90% v/v Normal saline, and for PO & IP was 10%v/v NMP, 10%v/v Solutol HS-15. 50%v/v PEG-400 and 30%v/v HPβCD (20%w/v) in saline. […] Immediately after blood collection, plasma was harvested by centrifugation at 12,300×g, 10 min at 4 °C and samples were stored at −70 ± 10 °C until bioanalysis. Concentrations of SJ3149 in mouse plasma samples were determined by fit-for-purpose LC–MS/MS method. Non-Compartmental-Analysis tool of Phoenix WinNonlin® (Version 8.3) was used to assess the pharmacokinetic parameters. Peak plasma concentration (Cmax) and time for the peak plasma concentration (Tmax) were the observed values. The area under the concentration–time curve (AUClast) was calculated by the linear trapezoidal rule. The terminal elimination rate constant, ke was determined by regression analysis of the linear terminal portion of the log plasma concentration-time curve. Clearance was estimated as Dose/AUCinf and Vss as CL*MRT.

[4] = female, CD1, plasma, IP 50 mg/kg
[5] = female, CD1, plasma, IV 3 mg/kg
[6] = female, CD1, plasma, PO 50 mg/kg

Structure (SMILES): O=C1CCC(N2Cc3cc(Nc4noc5ccccc45)ccc3C2=O)C(=O)N1 (stereo not shown) [SJ3149]
- Viability response of cells expressing CK1α G40N vs wild type CK1α ([1]; CTG 72 h): no longer sensitive to SJ3149; also recorded: reduced response
- cell viability percentages, CK1a G40N ([1]; Concentration 0.000542): 79.1206% and 68.9136% and 86.2719% and 90.6755% and 74.2686% and 67.4931%
- cell viability percentages, CK1a G40N ([1]; Concentration 0.001625): 77.8434% and 63.4222% and 59.9052% and 65.772% and 68.5727% and 55.5817%
- cell viability percentages, CK1a G40N ([1]; Concentration 0.004875): 72.8442% and 62.075% and 50.1243% and 53.1953% and 62.3344% and 69.4392%
- cell viability percentages, CK1a G40N ([1]; Concentration 0.014624): 59.4413% and 49.1388% and 62.3084% and 70.556% and 54.4032% and 55.8792%
- cell viability percentages, CK1a G40N ([1]; Concentration 0.043872): 47.6849% and 48.0051% and 58.611% and 66.0269% and 52.3495% and 54.2867%
- cell viability percentages, CK1a G40N ([1]; Concentration 0.131617): 56.3532% and 47.9219% and 49.9326% and 67.2267% and 57.1406% and 57.2358%
- cell viability percentages, CK1a G40N ([1]; Concentration 0.394851): 51.3415% and 43.4521% and 48.9175% and 55.4224% and 56.3876% and 59.8672%
- cell viability percentages, CK1a G40N ([1]; Concentration 1.18455): 47.8506% and 47.8436% and 44.0498% and 54.2517% and 50.6636% and 54.2115%
- cell viability percentages, CK1a G40N ([1]; Concentration 3.55366): 37.4202% and 38.8791% and 44.5898% and 50.284% and 52.251% and 51.3543%
- half-life at 1 µM [2]: > 3.6 h
- T1/2 ([3]; PO 50 mg/kg, 50 mg/kg): 2.57 h
- half-life ([3]; female, ip, 50 mg/kg, IP 50 mg/kg): 3.08 h
- half-life ([3]; female, iv, 3 mg/kg, IV 3 mg/kg): 0.77 h
- half-life ([3]; female, po, 50 mg/kg, PO 50 mg/kg): ~3 h
- AUC(0-t) [3, 4]: 17000 ng·h/mL
- Tmax [3, 4]: 0.25 h
- bioavailability [3, 4]: 74%
- Cmax ([3]; female, CD1, plasma, IP 50 mg/kg, read-out: C0/Cmax): 6680 ng/mL
- AUC(0-t) [3, 5]: 1370 ng·h/mL
- clearance [3, 5]: 36.2 mL/min/kg
- Cmax ([3]; female, CD1, plasma, IV 3 mg/kg, read-out: C0/Cmax (C0 back extrapolated)): 4510 ng/mL
- Vd ([3]; female, CD1, plasma, IV 3 mg/kg, read-out: Vss): 0.67 L/kg
- AUC(0-t) [3, 6]: 2850 ng·h/mL
- Tmax [3, 6]: 0.25 h
- bioavailability [3, 6]: 12%
- Cmax ([3]; female, CD1, plasma, PO 50 mg/kg, read-out: C0/Cmax): 4740 ng/mL
- Cmax ([3]; female, CD1, plasma, PO 50 mg/kg, read-out: C0/Cmax (molar)): 12.6 µM
